# Test results as given in PubChem BioAssay (NCI).
#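 These data come from cells grown in 96-well plates and exposed to compound for 48 hours at five concentrations. At the GI50, growth is halved. The concentration for full growth arrest is given as TGI.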
# Assays:
# Assay in all cases: NCI-60 cell line screen, 48 h
# 786-0 renal = system: 786-0 renal
# A498 renal = system: A498 renal
# A549 NSCLC = system: A549 NSCLC
# ACHN renal = system: ACHN renal
# BT-549 breast = system: BT-549 breast
# CAKI-1 renal = system: CAKI-1 renal
# CCRF-CEM leukemia = system: CCRF-CEM leukemia
# COLO 205 colon = system: COLO 205 colon
# DU-145 prostate = system: DU-145 prostate
# EKVX NSCLC = system: EKVX NSCLC
# HCC-2998 colon = system: HCC-2998 colon
# HCT-116 colon = system: HCT-116 colon
# HCT-15 colon = system: HCT-15 colon
# HL-60(TB) leukemia = system: HL-60(TB) leukemia
# HOP-62 NSCLC = system: HOP-62 NSCLC
# HOP-92 NSCLC = system: HOP-92 NSCLC
# HS 578T breast = system: HS 578T breast
# HT29 colon = system: HT29 colon
# IGROV1 ovarian = system: IGROV1 ovarian
# K-562 leukemia = system: K-562 leukemia
# KM12 colon = system: KM12 colon
# LOX IMVI melanoma = system: LOX IMVI melanoma
# M14 melanoma = system: M14 melanoma
# MALME-3M melanoma = system: MALME-3M melanoma
# MDA-MB-231 breast = system: MDA-MB-231 breast
# MDA-MB-435 = system: MDA-MB-435
# MOLT-4 leukemia = system: MOLT-4 leukemia
# NCI-H226 lung = system: NCI-H226 lung
compound,measurement,setting,value
C=CCOC1=CC(=O)c2ccccc2C1=O,GI50,786-0 renal,4.88 µM
same,TGI,786-0 renal,15.6 µM
same,GI50,A498 renal,1420 nM
same,TGI,A498 renal,19.8 µM
same,GI50,A549 NSCLC,2120 nM
same,TGI,A549 NSCLC,4.85 µM
same,GI50,ACHN renal,3.23 µM
same,TGI,ACHN renal,11.9 µM
same,GI50,BT-549 breast,11.1 µM
same,TGI,BT-549 breast,23.2 µM
same,GI50,CAKI-1 renal,15.8 µM
same,TGI,CAKI-1 renal,68.7 µM
same,GI50,CCRF-CEM leukemia,4.37 µM
same,TGI,CCRF-CEM leukemia,41.1 µM
same,GI50,COLO 205 colon,1700 nM
same,TGI,COLO 205 colon,3.29 µM
same,GI50,DU-145 prostate,2110 nM
same,TGI,DU-145 prostate,3.72 µM
same,GI50,EKVX NSCLC,4.75 µM
same,TGI,EKVX NSCLC,26.9 µM
same,GI50,HCC-2998 colon,8.59 µM
same,TGI,HCC-2998 colon,21.9 µM
same,GI50,HCT-116 colon,2680 nM
same,TGI,HCT-116 colon,6.69 µM
same,GI50,HCT-15 colon,2100 nM
same,TGI,HCT-15 colon,4.64 µM
same,GI50,HL-60(TB) leukemia,2750 nM
same,TGI,HL-60(TB) leukemia,6.61 µM
same,GI50,HOP-62 NSCLC,1820 nM
same,TGI,HOP-62 NSCLC,3.43 µM
same,GI50,HOP-92 NSCLC,4.42 µM
same,TGI,HOP-92 NSCLC,15.4 µM
same,GI50,HS 578T breast,4.58 µM
same,TGI,HS 578T breast,43.2 µM
same,GI50,HT29 colon,2390 nM
same,TGI,HT29 colon,5.53 µM
same,GI50,IGROV1 ovarian,4.34 µM
same,TGI,IGROV1 ovarian,13.9 µM
same,GI50,K-562 leukemia,3.62 µM
same,TGI,K-562 leukemia,16.5 µM
same,GI50,KM12 colon,3.23 µM
same,TGI,KM12 colon,9.26 µM
same,GI50,LOX IMVI melanoma,1710 nM
same,TGI,LOX IMVI melanoma,3.65 µM
same,GI50,M14 melanoma,2110 nM
same,TGI,M14 melanoma,4.35 µM
same,GI50,MALME-3M melanoma,1890 nM
same,TGI,MALME-3M melanoma,3.54 µM
same,GI50,MDA-MB-231 breast,5.27 µM
same,TGI,MDA-MB-231 breast,> 100 µM
same,GI50,MDA-MB-435,1940 nM
same,TGI,MDA-MB-435,3.64 µM
same,GI50,MOLT-4 leukemia,5.36 µM
same,TGI,MOLT-4 leukemia,40.4 µM
same,GI50,NCI-H226 lung,1880 nM
same,TGI,NCI-H226 lung,4.12 µM
